Data from patent US9249129B2, “Morpholino substituted urea derivatives as mTOR inhibitors” (CELLZOME LIMITED, priority 2010, dated 2016).

Key:
Assay in all cases: kinobeads assay with mass spectrometry detection of kinases (kinase selectivity profile)
Format in all cases: binding
[1] = target: T1, kinases (kinome) (Homo sapiens, UniProt Q13163); details: MAP2K5 (STE), IPI00158248
T1 construct: determined in kinobeads assays with mass spectrometry detection of kinases as described previously; endogenous in cells; host or cells: cell lysate
T1 sequence (Q13163 1-448): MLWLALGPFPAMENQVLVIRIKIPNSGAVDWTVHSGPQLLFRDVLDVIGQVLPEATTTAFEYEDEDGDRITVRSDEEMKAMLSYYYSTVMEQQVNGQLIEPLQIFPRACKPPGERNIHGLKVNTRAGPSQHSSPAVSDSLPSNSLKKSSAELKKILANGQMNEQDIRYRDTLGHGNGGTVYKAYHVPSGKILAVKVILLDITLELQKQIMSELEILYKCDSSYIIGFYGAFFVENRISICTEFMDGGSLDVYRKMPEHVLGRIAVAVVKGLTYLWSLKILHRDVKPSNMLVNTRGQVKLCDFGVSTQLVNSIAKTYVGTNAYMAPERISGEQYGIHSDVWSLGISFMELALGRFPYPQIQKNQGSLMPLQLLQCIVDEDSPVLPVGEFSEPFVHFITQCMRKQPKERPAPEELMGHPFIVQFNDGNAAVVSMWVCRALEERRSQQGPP
Description: (§1) The protein kinase complement of the human genome (the kinome) was described previously (Manning et al., 2002. Science 298(5600):1912-1934). Sequence accession numbers are defined by the International Protein Index (IPI) (Kersey et al., 2004. Proteomics 4(7):1985-1988).

[2] = target: T2, kinases (kinome) (Homo sapiens, UniProt Q9UL54); details: TAO2 (STE), IPI00006283
T2 construct: determined in kinobeads assays with mass spectrometry detection of kinases as described previously; endogenous in cells; host or cells: cell lysate
T2 sequence (Q9UL54 1-1235): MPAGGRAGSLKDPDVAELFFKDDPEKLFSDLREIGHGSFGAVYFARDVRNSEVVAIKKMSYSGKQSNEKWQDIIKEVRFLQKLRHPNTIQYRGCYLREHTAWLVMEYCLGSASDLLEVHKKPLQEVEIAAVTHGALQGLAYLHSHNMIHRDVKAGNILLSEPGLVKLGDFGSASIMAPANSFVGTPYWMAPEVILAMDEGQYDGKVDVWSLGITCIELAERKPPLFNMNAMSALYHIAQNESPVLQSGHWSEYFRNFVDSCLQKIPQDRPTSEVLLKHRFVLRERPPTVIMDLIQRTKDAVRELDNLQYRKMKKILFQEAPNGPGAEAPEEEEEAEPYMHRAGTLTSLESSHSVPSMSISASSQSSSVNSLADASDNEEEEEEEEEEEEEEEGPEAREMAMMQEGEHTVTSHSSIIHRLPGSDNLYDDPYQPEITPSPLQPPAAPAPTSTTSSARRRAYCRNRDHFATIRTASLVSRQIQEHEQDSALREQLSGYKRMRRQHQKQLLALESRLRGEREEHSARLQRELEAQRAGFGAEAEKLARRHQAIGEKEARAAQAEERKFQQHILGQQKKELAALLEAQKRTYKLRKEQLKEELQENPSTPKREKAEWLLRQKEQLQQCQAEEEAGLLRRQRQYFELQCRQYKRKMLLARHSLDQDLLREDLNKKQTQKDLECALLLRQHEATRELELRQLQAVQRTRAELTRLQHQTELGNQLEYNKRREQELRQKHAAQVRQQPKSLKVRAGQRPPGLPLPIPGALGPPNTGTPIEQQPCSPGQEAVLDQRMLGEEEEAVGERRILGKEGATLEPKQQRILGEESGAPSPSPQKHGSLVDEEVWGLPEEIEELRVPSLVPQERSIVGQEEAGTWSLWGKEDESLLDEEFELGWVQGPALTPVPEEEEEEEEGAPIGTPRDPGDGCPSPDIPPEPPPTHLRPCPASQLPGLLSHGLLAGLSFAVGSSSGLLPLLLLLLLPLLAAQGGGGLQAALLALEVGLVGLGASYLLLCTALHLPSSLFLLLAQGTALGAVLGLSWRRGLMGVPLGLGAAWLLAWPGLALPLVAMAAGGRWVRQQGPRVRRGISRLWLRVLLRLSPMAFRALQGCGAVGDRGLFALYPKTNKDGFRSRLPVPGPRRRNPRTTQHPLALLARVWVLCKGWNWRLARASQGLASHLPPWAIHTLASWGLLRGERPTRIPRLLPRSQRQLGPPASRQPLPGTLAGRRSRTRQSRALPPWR
Description: as §1

[3] = target: T3, kinases (kinome) (Homo sapiens, UniProt P36897); details: TGFbR1 (TKL), IPI00005733
T3 construct: determined in kinobeads assays with mass spectrometry detection of kinases as described previously; endogenous in cells; host or cells: cell lysate
T3 sequence (P36897 34-503): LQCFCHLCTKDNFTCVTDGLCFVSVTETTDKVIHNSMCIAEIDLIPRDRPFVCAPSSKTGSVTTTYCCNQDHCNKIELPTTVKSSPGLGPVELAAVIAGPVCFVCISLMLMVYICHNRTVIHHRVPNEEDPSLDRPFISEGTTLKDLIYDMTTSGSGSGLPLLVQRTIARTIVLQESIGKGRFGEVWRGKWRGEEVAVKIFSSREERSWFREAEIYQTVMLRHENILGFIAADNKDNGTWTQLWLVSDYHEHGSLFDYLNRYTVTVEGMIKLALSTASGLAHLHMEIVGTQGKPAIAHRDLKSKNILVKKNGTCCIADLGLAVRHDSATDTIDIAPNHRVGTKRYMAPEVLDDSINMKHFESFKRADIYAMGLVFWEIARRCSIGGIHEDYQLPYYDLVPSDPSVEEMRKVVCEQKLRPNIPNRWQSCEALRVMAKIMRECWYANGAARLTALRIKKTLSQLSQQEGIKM
Description: as §1

[4] = target: T4, kinases (kinome) (Homo sapiens, UniProt Q6PHR2); details: ULK3 (Other), IPI00910978
T4 construct: determined in kinobeads assays with mass spectrometry detection of kinases as described previously; endogenous in cells; host or cells: cell lysate
T4 sequence (Q6PHR2 1-472): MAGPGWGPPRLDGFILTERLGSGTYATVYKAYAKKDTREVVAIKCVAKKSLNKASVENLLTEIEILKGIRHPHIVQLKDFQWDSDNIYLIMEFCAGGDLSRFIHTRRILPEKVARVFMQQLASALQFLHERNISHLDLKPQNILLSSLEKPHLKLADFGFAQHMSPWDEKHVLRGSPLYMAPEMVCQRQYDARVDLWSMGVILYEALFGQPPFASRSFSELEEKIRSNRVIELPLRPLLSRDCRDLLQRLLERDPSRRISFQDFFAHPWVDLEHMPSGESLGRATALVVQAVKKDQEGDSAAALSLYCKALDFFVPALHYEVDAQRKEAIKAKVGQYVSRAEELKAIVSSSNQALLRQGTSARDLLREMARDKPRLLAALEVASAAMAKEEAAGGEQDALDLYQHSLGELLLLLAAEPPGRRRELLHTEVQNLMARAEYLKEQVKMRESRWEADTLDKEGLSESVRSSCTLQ
Description: as §1

Measured: IC50

C[C@H]1COCCN1c1nc(-c2ccc(NC(=O)N[C@H]3CCC[C@@H]3O)cc2)cc(-c2cc(F)ccc2S(C)(=O)=O)n1 [Example 76, 1-(4-(6-(5-fluoro-2-(methylsulfonyl)phenyl)-2-((S)-3-methylmorpholino)pyrimidin-4-yl)phenyl)-3-((1S,2S)-2-hydroxycyclopentyl)urea]
> 10 µM: all assays above

C[C@H]1COCCN1c1nc(-c2ccc(NC(=O)NC3CC3)cc2)cc(-c2ccccc2S(C)(=O)=O)n1 [Example 4, (S)-1-cyclopropyl-3-(4-(2-(3-methylmorpholino)-6-(2-(methylsulfonyl)phenyl)pyrimidin-4-yl)phenyl)urea]
> 10 µM: all assays above

C[C@H]1COCCN1c1cc(-c2ccccc2S(C)(=O)=O)nc(-c2ccc(NC(=O)NC3CC3)cc2)n1 [Example 6, (S)-1-cyclopropyl-3-(4-(4-(3-methylmorpholino)-6-(2-(methylsulfonyl)phenyl)pyrimidin-2-yl)phenyl)urea]
> 10 µM: all assays above

C[C@H]1COCCN1c1cc(-c2ccccn2)nc(-c2ccc(NC(=O)NCCO)cc2)n1 [Example 43, (S)-1-(2-hydroxyethyl)-3-(4-(4-(3-methylmorpholino)-6-(pyridin-2-yl)pyrimidin-2-yl)phenyl)urea]
> 10 µM: all assays above

C[C@H]1COCCN1c1nc(-c2ccc(NC(=O)NC3CC3)cc2)cc(-c2cccnc2S(C)(=O)=O)n1 [Example 46, (S)-1-cyclopropyl-3-(4-(2-(3-methylmorpholino)-6-(2-(methylsulfonyl)pyridin-3-yl)pyrimidin-4-yl)phenyl)urea]
> 10 µM: all assays above

CCNC(=O)Nc1ccc(-c2cc(-c3ccccc3C#N)nc(N3CCOC[C@@H]3C)n2)cc1 [Example 8, (S)-1-(4-(6-(2-cyanophenyl)-2-(3-methylmorpholino)pyrimidin-4-yl)phenyl)-3-ethylurea]
> 10 µM: all assays above

C[C@H]1COCCN1c1nc(-c2ccc(NC(=O)NC3CC3)cc2)cc(-c2cc(F)ccc2S(C)(=O)=O)n1 [Example 40, (S)-1-cyclopropyl-3-(4-(6-(5-fluoro-2-(methylsulfonyl)phenyl)-2-(3-methylmorpholino)pyrimidin-4-yl)phenyl)urea]
> 10 µM: all assays above
